This note sets out measurements from patent EP2257297B1, “COMPOUNDS FOR USE IN THE TREATMENT OF ACNE, SEBORRHOEA AND SEBHORROEIC DERMATITIS, OR FOR REDUCING SEBUM SECRETION” (priority 2008, dated 2009).

In general, IC50 refers to the concentration at which inhibition is half-maximal.

Some results are limits rather than exact numbers.

For this assay, the target named is T1, human MC5R (Homo sapiens, UniProt P33032).
T1 construct: purchased Perkin Elmer RBXMC5M400UA
T1 sequence (P33032 whole entry): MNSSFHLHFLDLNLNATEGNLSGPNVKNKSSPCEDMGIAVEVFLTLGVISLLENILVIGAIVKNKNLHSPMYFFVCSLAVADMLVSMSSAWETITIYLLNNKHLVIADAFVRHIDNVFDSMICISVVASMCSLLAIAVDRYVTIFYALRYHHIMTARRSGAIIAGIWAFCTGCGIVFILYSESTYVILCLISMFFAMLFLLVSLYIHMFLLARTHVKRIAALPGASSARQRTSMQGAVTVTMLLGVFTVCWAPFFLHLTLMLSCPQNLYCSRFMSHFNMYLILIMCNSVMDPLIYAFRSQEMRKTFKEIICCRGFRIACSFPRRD
Description: Human MC5R radioligand binding assay ([125I] NDP-MSH displacement, hMC5R membranes). As to conditions: hMC5R assay as in Example 102; compounds tested as trifluoroacetate or hydrochloride salts, or as free base. The essentials: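 Bound ligand collected by filtration on PEI-soaked GF/A filters and counted. Data fitted to a single-site competition model with fixed Hill coefficient to give EC50.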
With `O=C(/C=C/c1ccc(Cl)cc1)NC[C@@H]1CCN(CC(c2ccccc2)c2ccccc2)C(=O)[C@H](CCNC(=O)CC2CCCCC2)N1` [Compound 307, (E)-3-(4-chlorophenyl)-N-(((3S,5S)-3-(2-(2-cyclohexylacetamido)ethyl)-1-(2,2-diphenylethyl)-2-oxo-1,4-diazepan-5-yl)methyl)acrylamide], the IC50 was below 1000 nM.
On to `NCC[C@@H]1N[C@H](CCNC(=O)c2ccccc2)CCN(CC(c2ccccc2)c2ccccc2)C1=O` [Compound 308, N-(2-((3S,5R)-1-(2,2-diphenylethyl)-2-oxo-3-(2-aminoethyl)-1,4-diazepan-5-yl)ethyl)benzamide], for which the IC50 is below 10000 nM.
Consider `NCC[C@@H]1N[C@H](CCNC(=O)c2ccc(Cl)c(Cl)c2)CCN(CC(c2ccccc2)c2ccccc2)C1=O` [Compound 309, 3,4-dichloro-N-(2-((3S,5R)-1-(2,2-diphenylethyl)-2-oxo-3-(2-aminoethyl)-1,4-diazepan-5-yl)ethyl)benzamide], for which the IC50 was below 1000 nM.
Under `O=C(NCC[C@@H]1CCN(CC(c2ccccc2)c2ccccc2)C(=O)[C@H](CCN2CCCCC2)N1)c1ccccc1` [Compound 311, N-(2-((3S,5R)-1-(2,2-diphenylethyl)-2-oxo-3-(2-(piperidin-1-yl)ethyl)-1,4-diazepan-5-yl)ethyl)benzamide] stands below 10000 nM.
With `O=C(NCC[C@@H]1CCN(CC(c2ccccc2)c2ccccc2)C(=O)[C@H](CCN2CCCCC2)N1)c1ccc(Cl)c(Cl)c1` [Compound 312, 3,4-dichloro-N-(2-((3S,5R)-1-(2,2-diphenylethyl)-2-oxo-3-(2-(piperidin-1-yl)ethyl)-1,4-diazepan-5-yl)ethyl)benzamide] the figure was below 1000 nM; with `O=C(/C=C/c1ccc(Cl)cc1)NC[C@@H]1CCN(CC(c2ccccc2)c2ccccc2)C(=O)[C@H](CCC(=O)N2CCCCC2)N1` [Compound 318, (E)-3-(4-chlorophenyl)-N-(((3S,5S)-1-(2,2-diphenylethyl)-2-oxo-3-(3-oxo-3-(piperidin-1-yl)propyl)-1,4-diazepan-5-yl)methyl)acrylamide], below 100 nM; with `O=C(/C=C/c1ccc(Cl)cc1)NC[C@@H]1CCN(CC(c2ccccc2)c2ccccc2)C(=O)[C@H](CCc2ccccc2)N1` [Compound 320, (E)-3-(4-chlorophenyl)-N-(((3S,5S)-1-(2,2-diphenylethyl)-2-oxo-3-phenethyl-1,4-diazepan-5-yl)methyl)acrylamide], below 1000 nM.
For the compound `O=C(/C=C/c1ccc(Cl)cc1)NC[C@@H]1CCN(CC(c2ccccc2)c2ccccc2)C(=O)[C@H](CCC2CCCCC2)N1` [Compound 322, (E)-3-(4-chlorophenyl)-N-(((3S,5S)-3-(2-cyclohexylethyl)-1-(2,2-diphenylethyl)-2-oxo-1,4-diazepan-5-yl)methyl)acrylamide], the half-inhibitory concentration (IC50) is below 1000 nM.
On to `O=C(/C=C/c1ccc(Cl)cc1)NC[C@@H]1CCN(CC(c2ccccc2)c2ccccc2)C(=O)[C@H](Cc2ccccc2)N1` [Compound 324, (E)-N-(((3S,5S)-3-benzyl-1-(2,2-diphenylethyl)-2-oxo-1,4-diazepan-5-yl)methyl)-3-(4-chlorophenyl)acrylamide], for which the IC50 is below 1000 nM.
In the case of `NCC[C@@H]1N[C@H](CNC(=O)c2ccc(Cl)c(Cl)c2)CCN(Cc2cc(Cl)cc(Cl)c2)C1=O` [Compound 325, N-(((3S,5S)-3-(2-aminoethyl)-1-(3,5-dichlorobenzyl)-2-oxo-1,4-diazepan-5-yl)methyl)-3,4-dichlorobenzamide], the IC50 is below 1000 nM.
Under `NCC[C@@H]1N[C@H](CNC(=O)/C=C/c2ccc(Cl)cc2)CCN(Cc2cc(Cl)cc(Cl)c2)C1=O` [Compound 326, (E)-N-(((3S,5S)-3-(2-aminoethyl)-1-(3,5-dichlorobenzyl)-2-oxo-1,4-diazepan-5-yl)methyl)-3-(4-chlorophenyl)acrylamide] stands below 100 nM.
With `O=C(NC[C@@H]1CCN(Cc2cc(Cl)cc(Cl)c2)C(=O)[C@H](CCN2CCCCC2)N1)c1ccc(Cl)c(Cl)c1` [Compound 343, 3,4-dichloro-N-(((3S,5S)-1-(3,5-dichlorobenzyl)-2-oxo-3-(2-(piperidin-1-yl)ethyl)-1,4-diazepan-5-yl)methyl)benzamide] the figure was below 100 nM; with `O=C(/C=C/c1ccc(Cl)cc1)NC[C@@H]1CCN(Cc2cc(Cl)cc(Cl)c2)C(=O)[C@H](CCN2CCCCC2)N1` [Compound 345, (E)-3-(4-chlorophenyl)-N-(((3S,5S)-1-(3,5-dichlorobenzyl)-2-oxo-3-(2-(piperidin-1-yl)ethyl)-1,4-diazepan-5-yl)methyl)acrylamide], below 10 nM.
Regarding `CCC(CC)CN1CC[C@@H](CNC(=O)c2ccc(Cl)c(Cl)c2)N[C@@H](CCN)C1=O` [Compound 346, N-(((3S,5S)-3-(2-aminoethyl)-1-(2-ethylbutyl)-2-oxo-1,4-diazepan-5-yl)methyl)-3,4-dichlorobenzamide], the 50% inhibitory concentration (IC50) was below 1000 nM.
With `CCC(CC)CN1CC[C@@H](CNC(=O)c2ccc(Cl)c(Cl)c2)N[C@@H](CCN2CCCCC2)C1=O` [Compound 349, 3,4-dichloro-N-(((3S,5S)-1-(2-ethylbutyl)-2-oxo-3-(2-(piperidin-1-yl)ethyl)-1,4-diazepan-5-yl)methyl)benzamide] the figure was below 100 nM.
With `CCC(CC)CN1CC[C@@H](CNC(=O)c2ccc(Cl)c(F)c2)N[C@@H](CCN)C1=O` [Compound 351, N-(((3S,5S)-3-(2-aminoethyl)-1-(2-ethylbutyl)-2-oxo-1,4-diazepan-5-yl)methyl)-4-chloro-3-fluorobenzamide] the figure was below 10000 nM.
With `CCC(CC)CN1CC[C@@H](CNC(=O)c2ccc(Cl)c(C)c2)N[C@@H](CCN)C1=O` [Compound 352, N-(((3S,5S)-3-(2-aminoethyl)-1-(2-ethylbutyl)-2-oxo-1,4-diazepan-5-yl)methyl)-4-chloro-3-methylbenzamide] the figure was below 10000 nM; with `CCC(CC)CN1CC[C@@H](CNC(=O)c2ccc(F)c(Cl)c2)N[C@@H](CCN)C1=O` [Compound 353, N-(((3S,5S)-3-(2-aminoethyl)-1-(2-ethylbutyl)-2-oxo-1,4-diazepan-5-yl)methyl)-3-chloro-4-fluorobenzamide], below 10000 nM.
For the compound `CCC(CC)CN1CC[C@@H](CNC(=O)c2ccc(C)c(Cl)c2)N[C@@H](CCN)C1=O` [Compound 354, N-(((3S,5S)-3-(2-aminoethyl)-1-(2-ethylbutyl)-2-oxo-1,4-diazepan-5-yl)methyl)-3-chloro-4-methylbenzamide], the IC50 is below 10000 nM.
Under `CCC(CC)CN1CC[C@@H](CNC(=O)/C=C/c2ccc(Cl)cc2)N[C@@H](CN2CCCCC2)C1=O` [Compound 355, (E)-3-(4-chlorophenyl)-N-(((3S,5S)-1-(2-ethylbutyl)-2-oxo-3-(piperidin-1-ylmethyl)-1,4-diazepan-5-yl)methyl)acrylamide] stands below 1000 nM.
Under `CC(C)NCC[C@@H]1N[C@H](CCNC(=O)c2ccc(Cl)c(Cl)c2)CCN(CC(c2ccccc2)c2ccccc2)C1=O` [Compound 362, 3,4-dichloro-N-(2-((3S,5R)-1-(2,2-diphenylethyl)-3-(2-(isopropylamino)ethyl)-2-oxo-1,4-diazepan-5-yl)ethyl)benzamide] stands below 1000 nM.
Under `CC(C)N(CC[C@@H]1N[C@H](CCNC(=O)c2ccc(Cl)c(Cl)c2)CCN(CC(c2ccccc2)c2ccccc2)C1=O)C(C)C` [Compound 363, 3,4-dichloro-N-(2-((3S,5R)-3-(2-(diisopropylamino)ethyl)-1-(2,2-diphenylethyl)-2-oxo-1,4-diazepan-5-yl)ethyl)benzamide] stands below 10000 nM; under `NC[C@@H]1N[C@H](CNC(=O)c2ccc(Cl)c(Cl)c2)CCN(Cc2cc(Cl)cc(Cl)c2)C1=O` [Compound 364, N-(((3S,5S)-3-(aminomethyl)-1-(3,5-dichlorobenzyl)-2-oxo-1,4-diazepan-5-yl)methyl)-3,4-dichlorobenzamide], below 1000 nM.
With `NC[C@@H]1N[C@H](CNC(=O)c2ccc3ccccc3c2)CCN(Cc2cc(Cl)cc(Cl)c2)C1=O` [Compound 365, N-(((3S,5S)-3-(aminomethyl)-1-(3,5-dichlorobenzyl)-2-oxo-1,4-diazepan-5-yl)methyl)-2-naphthamide], the IC50 was below 1000 nM.
With `O=C(NC[C@@H]1CCN(Cc2cc(Cl)cc(Cl)c2)C(=O)[C@H](CN2CCCCC2)N1)c1ccc(Cl)c(Cl)c1` [Compound 367, 3,4-dichloro-N-(((3S,5S)-1-(3,5-dichlorobenzyl)-2-oxo-3-(piperidin-1-ylmethyl)-1,4-diazepan-5-yl)methyl)benzamide], the IC50 is below 1000 nM.
As for `O=C(/C=C/c1ccc(Cl)cc1)NC[C@@H]1CCN(Cc2cc(Cl)cc(Cl)c2)C(=O)[C@H](CN2CCCCC2)N1` [Compound 368, (E)-3-(4-chlorophenyl)-N-(((3S,5S)-1-(3,5-dichlorobenzyl)-2-oxo-3-(piperidin-1-ylmethyl)-1,4-diazepan-5-yl)methyl)acrylamide], the IC50 is below 100 nM.
Under `CCC(CN1CC[C@@H](CNC(=O)c2ccc(Cl)c(Cl)c2)N[C@@H](CCN)C1=O)c1ccccc1` (stereo partly drawn) [Compound 369, N-(((3S,5S)-3-(2-aminoethyl)-2-oxo-1-(2-phenylbutyl)-1,4-diazepan-5-yl)methyl)-3,4-dichlorobenzamide] stands below 1000 nM.
With `O=C(NC[C@@H]1CCN(Cc2cc(Cl)cc(Cl)c2)C(=O)[C@H](CN2CCCC2)N1)c1ccc(Cl)c(Cl)c1` [Compound 371, 3,4-dichloro-N-(((3S,5S)-1-(3,5-dichlorobenzyl)-2-oxo-3-(pyrrolidin-1-ylmethyl)-1,4-diazepan-5-yl)methyl)benzamide] the figure was below 1000 nM.
Regarding `O=C(NC[C@@H]1CCN(Cc2cc(Cl)cc(Cl)c2)C(=O)[C@H](CN2CCCC2)N1)c1ccc2ccccc2c1` [Compound 372, N-(((3S,5S)-1-(3,5-dichlorobenzyl)-2-oxo-3-(pyrrolidin-1-ylmethyl)-1,4-diazepan-5-yl)methyl)-2-naphthamide], the IC50 was below 1000 nM.
